Laboratory results as given in patent US12280022B2, “Method of treating major depressive disorder” (Clexio Biosciences Ltd., priority 2018, dated 2025).

Columns and labels:
[1] = test system: human peripheral blood lymphocytes (HPBL); details: definitive assay; non-activated 4- and 20-hour treatment conditions; any dose
Method: The clastogenic potential of esketamine was evaluated in the in vitro mammalian chromosome aberration test using human peripheral blood lymphocytes (HPBL) in both the absence and presence of an induced metabolic activation system (the 9000 g supernatant [S9] microsomal fraction of liver homogenate from rats exposed to Aroclor-1254).
The study was conducted in 2 phases, with a preliminary toxicity test used to determine the appropriate concentrations for the definitive chromosomal aberration assay. Water was used as a negative (vehicle) control. Toxicity (defined as ≥45% reduction in MI relative to the vehicle control) was evaluated at 9 concentrations, ranging from 0.0238 to 238 μg/ml, after exposure of HPBL to esketamine for 20 hours in the absence of S9 activation, or for 4 hours, either in the presence or absence of S9 activation, followed by a 16-hour recovery period.
The definitive chromosome aberration assay evaluated HPBL cells after exposure to esketamine for 20 hours in the absence of S9 activation, or for 4 hours, either in the presence of absence of S9 activation, followed by a 16-hour recovery. Positive controls for chromosomal aberrations in non-activated and S9-activated evaluations, respectively, consisted of mitomycin C (MMC, 0.6 and 0.3 μg/mL for the 4- and 20-hour exposures, respectively) and cyclophosphamide (CP, 2.5, 5, and 7.5 μg/mL). […]

liver of Crl:CD(SD) rats = assay: In vivo single cell gel electrophoresis (comet) assay in liver; details: male and female rats; oral gavage
[2] = test system: healthy male and female subjects; assay: Single dose crossover study in healthy volunteers: treatment-emergent adverse events; assay type: in vivo, human
Excerpt: A total of 128 TEAEs (treatment-emergent adverse event) were reported by 15 of 16 (94%) subjects of which 79 TEAEs reported by 14 of 16 (88%) subjects were to be related to the study drug. Overall, a total of 14 of 128 TEAEs reported by 4 (25%) subjects were of moderate severity and 114 of 128 TEAEs reported by 15 (94%) subjects were of mild severity. […] The most frequently occurring adverse events (reported more than twice) were headache, dizziness, hypokinesia, feeling abnormal, fatigue, euphoric mood inappropriate affect, nausea and hyperhidrosis. Table 4 presents the frequency of the most frequently reported related TEAEs as a percentage of the subjects that experienced an adverse effect per treatment.

male Sprague Dawley rats = assay: 7-day forced swim test; assay type: in vivo; details: intraperitoneal
Method: Groups of, 6-7 week old, male Sprague Dawley rats were administered esketamine by intraperitoneal injection and their behavioral despair assessed by a forced swim test. The animals, in cohorts of 10, were administered either a single dose of 15 mg/kg esketamine, 7 daily doses of either 7.5 or 15 mg/kg esketamine or a vehicle control, and the test performed 30 minutes after dosing. Statistical evaluation was performed using an ordinary One-Way ANOVA, t Test and an Uncorrected Fisher's LSD comparisons test.

[3] = test system: animal models of depression; details: without psychotomimetic side effects and abuse liability; cited from earlier work

SMILES: CN[C@]1(c2ccccc2Cl)CCCCC1=O [esketamine, (2S)-2-(2-Chlorophenyl)-2-(methylamino)cyclohexanone]
- cytotoxicity (≥45% reduction in mitotic index relative to the vehicle control) [1]: not observed
- DNA strand breaks in the liver (liver of Crl:CD(SD) rats): evidence of causing an increase in DNA strand breaks
- Dizziness, related TEAE, subjects ([2]; 0.3 mg/kg iv): 6%
- Euphoric mood, related TEAE, subjects ([2]; 0.3 mg/kg iv): 19%
- Fatigue, related TEAE, subjects ([2]; 0.3 mg/kg iv): 6%
- Feeling abnormal, related TEAE, subjects ([2]; 0.3 mg/kg iv): 13%
- Headache, related TEAE, subjects ([2]; 0.3 mg/kg iv): 19%
- Hypokinesia, related TEAE, subjects ([2]; 0.3 mg/kg iv): 6%
- Inappropriate affect, related TEAE, subjects ([2]; 0.3 mg/kg iv): 6%
- Nausea, related TEAE, subjects ([2]; 0.3 mg/kg iv): 6%
- Feeling abnormal, related TEAE, subjects ([2]; 20 mg oral solution): 19%
- Headache, related TEAE, subjects ([2]; 20 mg oral solution): 19%
- Inappropriate affect, related TEAE, subjects ([2]; 20 mg oral solution): 6%
- Dizziness, related TEAE, subjects ([2]; 20 mg oral tablet): 13%
- Fatigue, related TEAE, subjects ([2]; 20 mg oral tablet): 7%
- Feeling abnormal, related TEAE, subjects ([2]; 20 mg oral tablet): 7%
- Hyperhidrosis, related TEAE, subjects ([2]; 20 mg oral tablet): 7%
- Dizziness, related TEAE, subjects ([2]; 100 mg oral tablet): 13%
- Euphoric mood, related TEAE, subjects ([2]; 100 mg oral tablet): 13%
- Feeling abnormal, related TEAE, subjects ([2]; 100 mg oral tablet): 20%
- Headache, related TEAE, subjects ([2]; 100 mg oral tablet): 13%
- Hyperhidrosis, related TEAE, subjects ([2]; 100 mg oral tablet): 7%
- Hypokinesia, related TEAE, subjects ([2]; 100 mg oral tablet): 13%
- Inappropriate affect, related TEAE, subjects ([2]; 100 mg oral tablet): 7%
- Nausea, related TEAE, subjects ([2]; 100 mg oral tablet): 20%
- AE leading to withdrawal from the study ([2]; one subject (Subject 11) of 16, after first treatment period): mild hyperbilirubinemia
- antidepressant-like effect of continuous 7-day treatment vs single acute dose at the same dose levels (male Sprague Dawley rats): stronger antidepressant-like effect

SMILES: CN[C@@]1(c2ccccc2Cl)CCCCC1=O [(R)-ketamine, (2R)-2-(2-Chlorophenyl)-2-(methylamino)cyclohexanone]
- antidepressant effects compared with esketamine [3]: greater potency and longer-lasting antidepressant effects
